Structures are written as SMILES.

Data set [1] relates to sorafenib-resistant hepatocellular carcinoma. Briefly: Oncogene-induced, sorafenib-resistant HCC mouse model. It is filed as in vivo. How it is done: Cancer cells suspended in RPMI 1640 medium (11835-030, Thermo Fisher Scientific, Waltham, MA, USA) were mixed with Matrigel™ (356237, BD Biosciences, Franklin Lakes, NJ, USA) in a 1:1 ratio. Human triple-negative breast cancer HCC1806 (1 × 10^6 cells) cells were inoculated subcutaneously into the left flank of 6-week-old female nude mice (BioLASCO Taiwan, Taipei, Taiwan) using a 1 mL syringe with a 24G needle (AN-2425R, Terumo Medical Corp., Tokyo, Japan). Tumor dimensions were measured twice weekly using electronic calipers (FOW54-200-777, PRO-MAX), and the volume of tumor grown subcutaneously (mm^3) was calculated by the formula Volume = (length × width^2)/2. A combination of 10% DMA/20% Cremophor EL/70% 5% dextrose injection (D5W) was formulated to treat HCC1806 xenograft tumors. Mice with HCC1806 tumors were grouped and administered the indicated dosing regimen of 1 mg/kg for the conjugate and 0.3 mg/kg for the cytotoxic payloads DM1 and DM4 twice-weekly (day 1 and day 4) for 2 weeks when the mean tumor volume was approximately 200–250 mm^3 or 850–900 mm^3 (large tumors). The conjugate dose of 2 mg/kg was administered weekly for the large tumor study. The body weight and tumor volume of mice were measured twice weekly. In addition, a previously reported oncogene-induced, sorafenib-resistant HCC mouse model was used in the current study to examine the antitumor activities of synthesized compounds. Briefly, plasmids including transposase (pCMV(CAT)T7-SB100), human Akt1, and luciferase (pKT2/CLP-AKT-2A-OVA-HBc-HBs-LUC) and the N-Ras V12 mutant (pT/Caggs-NRASV12) were hydrodynamically injected (HDI) and the liver was monitored for the appearance of HCC. HCC mice with a total flux of more than 1 × 10^9 photons/s from IVIS imaging were used as treatment conjugates. The indicated conjugate was administered intravenously at 1 mg/kg 3 times per week over 2 weeks. IVIS imaging was repeatedly performed to follow tumor progression, and tumor tissue from treated HCC mice was collected for histological examination and RNA extraction after administration.
Paraffin-embedded liver/tumor tissue sections were de-paraffined, re-hydrated, and then subjected to heat-induced antigen retrieval, followed by incubation with primary Abs. The primary antibodies used to detect Ki-67 and CD8α were SP6 (Abcam, Cambridge, UK) and D4W2Z (Cell Signaling Technology, Danvers, MA, USA), respectively. ImmPRESS anti-rat Ig, ImmPRESS anti-rabbit Ig, polymer detection kit, DAB peroxidase substrate kit (Vector laboratories, Burlingame, CA, USA), and liquid permanent red substrate (Dako, Glostrup, Denmark) and Hematoxylin Gill II (Leica, Wetzlar, Germany) were used for detection and visualization. Images were taken by NHRI’s Pathology Core Laboratory using an automated digital slide scanner Pannoramic MIDI with a Plan-Apochromat 20×/0.8 objective (3D HISTECH, Budapest, Hungary).
Total RNA was extracted from conjugate-treated or vehicle-treated HCC mouse tumor tissue using the RNA-easy kit (QIAGEN, Hilden, Germany). The concentration (absorbance at 260 nm) and purity (A260/280 and A260/230 ratios) of the extracted RNA was measured spectrophotometrically; RNA integrity was further determined using the 2100 Bioanalyzer System (Agilent RNA was further determined for RNA integrity using a 2100 Bioanalyzer System (Agilent Technologies, Santa Clara, CA, USA). RNA was hybridized to the barcode probe provided in the nCounter Mouse Pan-Cancer Immunoassay Kit (NanoString Technologies, Seattle, WA, USA) and then used to measure mRNA expression of 770 genes associated with the immune response. Nanostring nSolver 4.0 and nCounter Advanced Analysis 2.0 software (NanoString Technologies) was used for data processing, immune cell analysis, and pathway scoring according to the developer’s instructions.

A short description of data set [2]: Pharmacokinetic study, single intravenous dose. It counts as in vivo, male ICR mice. How it is done:
Six-week-old male ICR mice from BioLASCO Taiwan were divided into three groups and administered intravenously at a 5 mg/kg dose. Blood samples were taken from each animal at time points 0.003, 0.083, 0.25, 0.5, 1, 2, 4, 6, 8, and 24 h and stored on ice (0–4 °C). The plasma was separated from the blood by centrifugation (in a Beckman Allegra 6R at 3000 rpm, 4 °C for 15 min) and stored under freezing conditions (−20 °C). Plasma and harvested tumor samples were stored at −80 °C until use. Fifty microliters of mouse plasma or tumor samples homogenized with ddH2O at a dilution ratio of 1:3 (w/v) with MiniBeadbeater-16 (BioSpec Products Inc., Bartlesville, OK, USA) were mixed with 100 μL of acetonitrile containing 250 ng/mL BPR0L187. The mixture was vortexed for 30 s and then centrifuged at 15,000× g for 20 min. The supernatant was transferred to a clean test tube, and 15 µL of supernatant was injected into the LC/MS/MS. Plasma samples were analyzed by liquid chromatography-tandem mass spectrometry (LC/MS/MS). The chromatography system was an Agilent 1200 series liquid chromatography system and an Agilent ZORBAX Eclipse XDB-C8 column (5 µm, 3.0 × 150 mm) connected with an MDS Sciex API4000 tandem mass spectrometer equipped with an ESI in forwarding scan mode at 600 °C. Data acquisition was performed by multiple reaction monitoring (MRM). A gradient system was used to separate the analytes from the IS. Mobile phase A was a 10 mM aqueous ammonium acetate solution containing 0.1% formic acid. Mobile phase B was acetonitrile. The gradient profile was as follows. 0.0–1.1 min, 50% B; 1.2–3.7 min, 55% B-90% B; 3.8–5.0 min, 90% B-50% B. The flow rate was 1.5 mL/min. The autosampler was set to inject 15 µL of the sample every 5 min.

[3] abbreviates: Nanostring mRNA analysis vs vehicle.
Where [4] appears, read: Nanostring pathway scoring vs vehicle.
The mark [5] stands for this setting: male ICR mice (n = 3), 5 mg/kg i.v.

As for `COc1cc2cc(c1Cl)N(C)C(=O)CC(OC(=O)C(C)N(C)C(=O)CCSC(=O)c1ccc(CN(CCOCCOCCNC(=O)c3ccc(CN(CCCCOc4cc(CN(Cc5ccccn5)Cc5ccccn5)cc(CN(Cc5ccccn5)Cc5ccccn5)c4)C(=O)C4(c5ccc(Cl)cc5)CCCCC4)cc3)C(=O)C3(c4ccc(Cl)cc4)CCCCC3)cc1)C1(C)OC1C(C)C1CC(O)(NC(=O)O1)C(OC)C=CC=C(C)C2.O=[N+]([O-])[O-].O=[N+]([O-])[O-].O=[N+]([O-])[O-].O=[N+]([O-])[O-].[Zn+2].[Zn+2]` (stereo not drawn) [Zn8_DM1], in data set [1] (1 mg/kg i.v. 3 times a week for 2 weeks), the “anti-HCC tumor growth (flux of luciferase activity)” value is on record as “potent anti-HCC tumor growth”. For the same molecule, in data set [1] (CD8α immunohistochemistry), the “CD8+ T-cell infiltration in tumors” value is on record as “significant increase”. In data set [1] (setting [3]), the “CXCL9 gene expression in tumor tissue” value is reported as “significant upregulation”, the “PD-L1 gene expression in tumor tissue” value is on record as “elevated PD-L1 gene expression” and the “STAT1 gene expression in tumor tissue” value is given as “elevated”. In data set [1] (setting [4]), the “NK cell function score in TME” value is recorded as “significant improvement”, the “T-cell function score in TME” value is on record as “significant improvement” and the “interferon score in TME” value was “significant improvement”. The “Ki-67 staining of tumor samples” value in data set [1] (immunohistochemistry, treated tumor) is listed as “marked reduction in Ki-67 staining”. Besides, the “liver tumor burden vs vehicle” value in data set [1] (livers harvested a week post last dose) is on record as “less tumor burden”. In data set [2] (setting [5]), the “AUC (0–24 h), intact conjugate” value is “Intact Conjugate: 161,538 ng/mL·h”; the CL turned out to be 0.5 mL/min/kg; the distribution volume (Vss) (usually the apparent volume that relates the amount in the body to the concentration in plasma or blood) is reported as 0.6 L/kg. Besides, the “AUC (0–24 h), released payload (DM1 or DM4)” value in data set [2] (male ICR mice (n = 3), 5 mg/kg i.v. of the conjugate) is reported as “DM1: 500 ng/mL·h”. The “AUC ratio between intact conjugate and released payload” value in data set [2] (within 24 h in circulation, 5 mg/kg i.v.) is “large AUC ratio”.

These data come from article PMC9323955, “Synthesis and Evaluation of Small Molecule Drug Conjugates Harnessing Thioester-Linked Maytansinoids” (Pharmaceutics, 2022).
